Measurements taken from the supplement of paper PMC10307832.

compound: CC(C)(C)c1cc(NC(=O)Nc2ccc(-c3cn4c(n3)sc3cc(OCCN5CCOCC5)ccc34)cc2)no1 [Quizartinib] + Nc1ncn([C@H]2C[C@H](O)[C@@H](CO)O2)c(=O)n1 [Decitabine] (partner 2 µM); test: relative viability (nuclei count vs DMSO), 5 days (fraction); higher = more cells survive; details: first compound 0.1 µM
Outline: (§1)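 Lung cancer cell lines, seeded in 1536-well plates, were treated the following day by pin tool with a single drug or with five library-drug doses (not always all listed) in √10 steps on top of a fixed anchor-drug dose. Cells were fixed and nuclei stained in one step after 5 days, and nuclei were counted. Relative viability is the nuclei count for treated wells divided by that for vehicle wells, reported as medians of duplicate plates.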

| Cell Line | relative viability |
| --- | --- |
| NCI-H358 | 0.192 |
| LK-2 | 0.438 |
| A549 | 0.25 |
| NCI-H2342 | 0.724 |
| NCI-H1793 | 0.466 |
| NCI-H522 | 0.618 |

compound: COCC[n+]1c2c(n(Cc3cnccn3)c1C)C(=O)c1ccccc1C2=O [YM155] + C[C@@H](Oc1cc(-c2cnn(C3CCNCC3)c2)cnc1N)c1c(Cl)ccc(F)c1Cl [Crizotinib] (partner 1 µM); test: as above; details: first compound 0.002 µM
Outline: as §1

| Cell Line | relative viability |
| --- | --- |
| EKVX | 0.834 |
| EPLC-272H | 0.692 |
| NCI-H520 | 0.755 |
| NCI-H1563 | 0.915 |
| NCI-H650 | 0.835 |
| RERF-LC-KJ | 0.775 |
| HCC-827 | 0.866 |
| NCI-H2087 | 0.914 |
| SK-MES-1 | 1.01 |
| NCI-H1299 | 0.92 |
| NCI-H1651 | 0.956 |
| UMC-11 | 0.525 |
| NCI-H1355 | 0.988 |
| H3255 | 0.836 |
| NCI-H1792 | 1 |
| NCI-H647 | 1.08 |
| Calu-6 | 0.728 |
| LCLC-97TM1 | 0.401 |
| NCI-H1703 | 0.612 |

| Cell Line | relative viability |
| --- | --- |
| LXF-289 | 0.812 |
| LU99A | 0.499 |
| NCI-H2023 | 0.719 |
| NCI-H2228 | 0.527 |
| NCI-H1437 | 0.878 |
| NCI-H2009 | 1.02 |
| HCC-366 | 0.519 |
| EBC-1 | 0.186 |
| NCI-H1915 | 0.898 |
| NCI-H2347 | 0.683 |
| ABC-1 | 0.844 |
| NCI-H1944 | 1.07 |
| IA-LM | 0.825 |
| NCI-H2170 | 1.13 |
| NCI-H358 | 0.538 |
| CAL-12T | 0.608 |
| LK-2 | 0.226 |
| A549 | 0.717 |

same assay, conditions: first compound 0.006325 µM

| Cell Line | relative viability |
| --- | --- |
| EKVX | 1.04 |
| EPLC-272H | 0.814 |
| NCI-H520 | 0.725 |
| NCI-H1563 | 0.802 |
| NCI-H650 | 0.655 |
| RERF-LC-KJ | 0.761 |
| HCC-827 | 0.968 |
| NCI-H2087 | 0.71 |
| SK-MES-1 | 0.963 |
| NCI-H1299 | 0.953 |
| NCI-H1651 | 0.806 |
| UMC-11 | 0.602 |
| NCI-H1355 | 1.11 |
| H3255 | 0.874 |
| NCI-H1792 | 1.05 |
| NCI-H647 | 1.31 |
| Calu-6 | 0.776 |
| LCLC-97TM1 | 0.4 |
| NCI-H1703 | 0.13 |

| Cell Line | relative viability |
| --- | --- |
| LXF-289 | 0.787 |
| LU99A | 0.549 |
| NCI-H2023 | 0.734 |
| NCI-H2228 | 0.445 |
| NCI-H1437 | 0.9 |
| NCI-H2009 | 0.992 |
| HCC-366 | 0.478 |
| EBC-1 | 0.193 |
| NCI-H1915 | 0.916 |
| NCI-H2347 | 0.644 |
| ABC-1 | 0.341 |
| NCI-H1944 | 0.916 |
| IA-LM | 0.766 |
| NCI-H2170 | 1.18 |
| NCI-H358 | 0.594 |
| CAL-12T | 0.696 |
| LK-2 | 0.236 |
| A549 | 0.592 |

same assay, conditions: first compound 0.02 µM

| Cell Line | relative viability |
| --- | --- |
| EKVX | 0.919 |
| EPLC-272H | 0.952 |
| NCI-H520 | 0.835 |
| NCI-H1563 | 0.838 |
| NCI-H650 | 0.747 |
| RERF-LC-KJ | 0.868 |
| HCC-827 | 0.918 |
| NCI-H2087 | 0.883 |
| SK-MES-1 | 1.07 |
| NCI-H1299 | 0.951 |
| NCI-H1651 | 0.876 |
| UMC-11 | 0.684 |
| NCI-H1355 | 1.03 |
| H3255 | 0.87 |
| NCI-H1792 | 0.994 |
| NCI-H647 | 1.12 |
| Calu-6 | 0.349 |
| LCLC-97TM1 | 0.442 |
| NCI-H1703 | 0.459 |

| Cell Line | relative viability |
| --- | --- |
| LXF-289 | 0.867 |
| LU99A | 0.633 |
| NCI-H2023 | 0.717 |
| NCI-H2228 | 0.368 |
| NCI-H1437 | 0.902 |
| NCI-H2009 | 0.725 |
| HCC-366 | 0.612 |
| EBC-1 | 0.206 |
| NCI-H1915 | 0.922 |
| NCI-H2347 | 0.561 |
| ABC-1 | 0.166 |
| NCI-H1944 | 1.2 |
| IA-LM | 0.685 |
| NCI-H2170 | 1.24 |
| NCI-H358 | 0.592 |
| CAL-12T | 0.551 |
| LK-2 | 0.214 |
| A549 | 0.654 |

same assay, conditions: first compound 0.06325 µM

| Cell Line | relative viability |
| --- | --- |
| EKVX | 0.839 |
| EPLC-272H | 1.06 |
| NCI-H520 | 0.66 |
| NCI-H1563 | 0.886 |
| NCI-H650 | 0.52 |
| RERF-LC-KJ | 0.766 |
| HCC-827 | 0.89 |
| NCI-H2087 | 0.648 |
| SK-MES-1 | 0.85 |
| NCI-H1299 | 0.767 |
| NCI-H1651 | 0.894 |
| UMC-11 | 0.505 |
| NCI-H1355 | 1.01 |
| H3255 | 0.874 |
| NCI-H1792 | 0.984 |
| NCI-H647 | 0.755 |
| Calu-6 | 0.135 |
| LCLC-97TM1 | 0.318 |
| NCI-H1703 | 0.175 |

| Cell Line | relative viability |
| --- | --- |
| LXF-289 | 0.684 |
| LU99A | 0.474 |
| NCI-H2023 | 0.361 |
| NCI-H2228 | 0.563 |
| NCI-H1437 | 0.681 |
| NCI-H2009 | 0.0795 |
| HCC-366 | 0.401 |
| EBC-1 | 0.202 |
| NCI-H1915 | 0.849 |
| NCI-H2347 | 0.633 |
| ABC-1 | 0.15 |
| NCI-H1944 | 1.27 |
| IA-LM | 0.548 |
| NCI-H2170 | 1.18 |
| NCI-H358 | 0.214 |
| CAL-12T | 0.409 |
| LK-2 | 0.241 |
| A549 | 0.142 |

compound: CC(C)(C)c1cc(NC(=O)Nc2ccc(-c3cn4c(n3)sc3cc(OCCN5CCOCC5)ccc34)cc2)no1 [Quizartinib] + CC(=O)Nc1cccc(-n2c(=O)n(C3CC3)c(=O)c3c(Nc4ccc(I)cc4F)n(C)c(=O)c(C)c32)c1 [Trametinib] (partner 0.02 µM); test: as above; details: first compound 0.001 µM
Outline: as §1

| Cell Line | relative viability |
| --- | --- |
| EPLC-272H | 0.291 |
| NCI-H650 | 0.94 |
